Holding throughout (type): biochemical, Myceliophthora thermophila C1
The test system of test [1] is M. thermophila C1 BGl1. The test is described as follows: Cellobiase activity of Bgl1 with or without gluconolactone. As to conditions: gluconolactone above 0.1 g/L; pH 4.5, 5.0 and 6.0. As to the method:
(§1) Purified Bgl1, Eg5, Eg6, CBH1, CBH2, and CBH4 from M. thermophila C1 were used to determine the level of inhibition by gluconolactone. For Bgl1, cellobiase activity was assayed by the following procedure: 0.4 ml of 2.5 mM cellobiose solution (in 0.1 M Na-acetate with pH 4.5, 5.0 or 6.0) was incubated during 5 min at 50° C. (with or without gluconolactone), then 0.1 ml of the enzyme (bgl1 from C1) solution was added (the dilution of the enzyme chosen at such a concentration in order to achieve 10% of cellobiose hydrolysis in 15 min, which is 0.072 g/L of glucose released). After 5, 10 and 15 min of incubation at […], 0.1 ml of the reaction mixture was sampled and glucose concentration was determined immediately by the glucose oxidase-peroxidase assay (Megazymes). Gluconolactone (Sigma-Aldrich) was added in the reaction mixture at concentrations between 0-10 g/L (0, 0.04, 0.08, 0.1, 0.2, 0.3, 0.6, 0.8, 1, 2, 4, 5, 8 and 10 g/L).
(§2) For C1 cellulases Eg2, Eg5, Eg6, CBH1, CBH2, CBH4, the effect of 10 g/L gluconolactone on the saccharification of microcrystalline cellulose (“MCC”) at 50° C. was determined after 72 hrs.

Test [2] concerns EG2. In words: Saccharification of microcrystalline cellulose by purified cellulase with gluconolactone. As to conditions: 10 g/L gluconolactone; MCC, 50° C., 72 hrs. As to the method: as §1, §2
The subject of test [3] is CBH1. Described as above. The following applies: 10 g/L gluconolactone; MCC, 50° C., 72 hrs. As to the method: as §1, §2
Test [4] concerns CBH4. The test is described as above. As to conditions: 10 g/L gluconolactone; MCC, 50° C., 72 hrs. As to the method: as §1, §2
In test [5] the test system is CBH2. The test is described as above. The following applies: 10 g/L gluconolactone; MCC, 50° C., 72 hrs. As to the method:
as §1, §2

In test [6] the test system is EG5. Described as above. As to conditions: 10 g/L gluconolactone; MCC, 50° C., 72 hrs. As to the method: as §1, §2

Results on 1 compound are retold here after US20130280764A1, “METHOD OF IMPROVING THE ACTIVITY OF CELLULASE ENZYME MIXTURES IN THE SACCHARIFICATION (LIGNO)CELLULOSIC MATERIAL” (DYADIC INTERNATIONAL (USA) LTD., priority 2012, published 2013).

For the compound `O=C1O[C@H](CO)[C@@H](O)[C@H](O)[C@H]1O` [gluconolactone], the “inhibition of cellobiase activity” value in test [1] was “completely inhibited”. The Remaining activity is 28% in test [2]; 14% in test [3]; 33% in test [4]; 13% in test [5]; 65% in test [6].
